The results in this text go back to PMC9822402, “Investigation on Hydrazonobenzenesulfonamides as Human Carbonic Anhydrase I, II, IX and XII Inhibitors” (Molecules, 2022).

The target in one assay is T1, hCA II (Homo sapiens, UniProt P00918).
T1 construct: gene CA2; recombinant, obtained in-house
Kind of assay: stopped-flow CO2 hydrase assay. The class given is biochemical. The following applies: read-out: KI (nM) ^1 / CAII.

Another assay has as its target T2, hCA I (Homo sapiens, UniProt P00915).
T2 construct: gene CA1; recombinant, obtained in-house
Kind of assay: stopped-flow CO2 hydrase assay. The following applies: read-out: KI (nM) ^1 / CAI. The class given is biochemical.

T2 sequence (P00915 2-261): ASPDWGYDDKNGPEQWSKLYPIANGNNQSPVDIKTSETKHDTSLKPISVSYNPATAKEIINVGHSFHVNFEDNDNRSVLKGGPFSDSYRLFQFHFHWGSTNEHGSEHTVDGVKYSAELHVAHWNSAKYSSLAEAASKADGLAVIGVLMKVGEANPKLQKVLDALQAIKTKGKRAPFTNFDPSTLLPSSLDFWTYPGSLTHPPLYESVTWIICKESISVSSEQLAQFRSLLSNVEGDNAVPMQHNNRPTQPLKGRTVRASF

In the case of `COc1ccccc1/C=N/NC(=O)C1CCN(C(=O)c2ccc(S(N)(=O)=O)cc2)CC1` [compound 7, (E)-4-(4-(2-(2-methoxybenzylidene)hydrazinecarbonyl)piperidine-1-carbonyl)benzenesulfonamide], the figures for the Ki on hCA II and on hCA I were 2.94 nM and 45.5 nM, respectively.

Regarding `COc1ccc(/C=N/NC(=O)C2CCN(C(=O)c3ccc(S(N)(=O)=O)cc3)CC2)cc1OC` [compound 11, (E)-4-(4-(2-(3,4-dimethoxybenzylidene)hydrazinecarbonyl)piperidine-1-carbonyl)benzenesulfonamide], the Ki on hCA II was 55.1 nM; at hCA I, 344 nM.

For `COc1cc(OC)c(OC)cc1/C=N/NC(=O)C1CCN(C(=O)c2ccc(S(N)(=O)=O)cc2)CC1` [compound 13, (E)-4-(4-(2-(2,4,5-trimethoxybenzylidene)hydrazinecarbonyl)piperidine-1-carbonyl)benzenesulfonamide], the Ki at hCA II came out at 3.78 nM.

As to `NS(=O)(=O)c1ccc(C(=O)N2CCC(C(=O)N/N=C/c3ccc4ccccc4c3)CC2)cc1` [compound 16, (E)-4-(4-(2-((naphthalen-2-yl)methylene)hydrazinecarbonyl)piperidine-1-carbonyl)benzenesulfonamide], the Ki at hCA II is 209 nM; on hCA I, 4000 nM.

As for `NS(=O)(=O)c1ccc(C(=O)N2CCC(C(=O)N/N=C/c3cccc(Cl)c3)CC2)cc1` [compound 24, (E)-4-(4-(2-(3-chlorobenzylidene)hydrazinecarbonyl)piperidine-1-carbonyl)benzenesulfonamide], the values for the Ki at hCA II and at hCA I were 55.4 nM and 398 nM, respectively.

As for `NS(=O)(=O)c1ccc(C(=O)N2CCC(C(=O)N/N=C/c3ccc(Cl)cc3Cl)CC2)cc1` [compound 25, (E)-4-(4-(2-(2,4-dichlorobenzylidene)hydrazinecarbonyl)piperidine-1-carbonyl)benzenesulfonamide], the results for the Ki on hCA II and on hCA I were 6.65 nM and 336 nM, respectively.

For the molecule `NS(=O)(=O)c1ccc(C(=O)N2CCC(C(=O)N/N=C/c3ccccc3)CC2)cc1` [compound 5, (E)-4-(4-(2-benzylidenehydrazinecarbonyl)piperidine-1-carbonyl)benzenesulfonamide], the values for the Ki on hCA II and at hCA I were 4.41 nM and 18.5 nM, respectively.

With `COc1ccc(OC)c(/C=N/NC(=O)C2CCN(C(=O)c3ccc(S(N)(=O)=O)cc3)CC2)c1` [compound 12, (E)-4-(4-(2-(2,5-dimethoxybenzylidene)hydrazinecarbonyl)piperidine-1-carbonyl)benzenesulfonamide], the Ki turned out to be 1.75 nM on hCA II and 24.3 nM at hCA I.

On to `NS(=O)(=O)c1ccc(C(=O)N2CCC(C(=O)N/N=C/c3ccc([N+](=O)[O-])cc3)CC2)cc1` [compound 22, (E)-4-(4-(2-(4-nitrobenzylidene)hydrazinecarbonyl)piperidine-1-carbonyl)benzenesulfonamide], for which the Ki on hCA II amounted to 4.92 nM; at hCA I it was 384 nM.

For the molecule `COc1ccc(/C=N/NC(=O)C2CCN(C(=O)c3ccc(S(N)(=O)=O)cc3)CC2)cc1` [compound 9, (E)-4-(4-(2-(4-methoxybenzylidene)hydrazinecarbonyl)piperidine-1-carbonyl)benzenesulfonamide], the Ki stood at 4.48 nM on hCA II and 389 nM on hCA I.

In the case of `COc1cccc(/C=N/NC(=O)C2CCN(C(=O)c3ccc(S(N)(=O)=O)cc3)CC2)c1` [compound 8, (E)-4-(4-(2-(3-methoxybenzylidene)hydrazinecarbonyl)piperidine-1-carbonyl)benzenesulfonamide], the Ki on hCA II was found to be 44.3 nM; on hCA I, 382 nM.

Regarding `NS(=O)(=O)c1ccc(C(=O)N2CCC(C(=O)N/N=C/c3cccc([N+](=O)[O-])c3)CC2)cc1` [compound 21, (E)-4-(4-(2-(3-nitrobenzylidene)hydrazinecarbonyl)piperidine-1-carbonyl)benzenesulfonamide], the figures for the Ki on hCA II and at hCA I were 46.2 nM and 1820 nM, respectively.

For `COc1cc(/C=N/NC(=O)C2CCN(C(=O)c3ccc(S(N)(=O)=O)cc3)CC2)cc(OC)c1OC` [compound 14, (E)-4-(4-(2-(3,4,5-trimethoxybenzylidene)hydrazinecarbonyl)piperidine-1-carbonyl)benzenesulfonamide], the Ki was 67.6 nM on hCA II and 384 nM at hCA I.

With `COc1c(/C=N/NC(=O)C2CCN(C(=O)c3ccc(S(N)(=O)=O)cc3)CC2)ccc2ccccc12` [compound 17, (E)-4-(4-(2-((1-methoxynaphthalen-2-yl)methylene)hydrazinecarbonyl)piperidine-1-carbonyl)benzenesulfonamide], the results for the Ki on hCA II and on hCA I were 25.2 nM and 334 nM, respectively.

Regarding `NS(=O)(=O)c1ccc(C(=O)N2CCC(C(=O)N/N=C/c3c(Cl)cccc3Cl)CC2)cc1` [compound 27, (E)-4-(4-(2-(2,6-dichlorobenzylidene)hydrazinecarbonyl)piperidine-1-carbonyl)benzenesulfonamide], the results for the Ki at hCA II and on hCA I were 3.57 nM and 24.6 nM, respectively.

Take `NS(=O)(=O)c1ccc(C(=O)N2CCC(C(=O)N/N=C/c3cc(Cl)ccc3Cl)CC2)cc1` [compound 26, (E)-4-(4-(2-(2,5-dichlorobenzylidene)hydrazinecarbonyl)piperidine-1-carbonyl)benzenesulfonamide]: the Ki at hCA II came out at 3.64 nM; at hCA I, 800 nM.

`NS(=O)(=O)c1ccc(C(=O)N2CCC(C(=O)N/N=C/c3ccc(C(F)(F)F)cc3)CC2)cc1` [compound 18, (E)-4-(4-(2-(4-(trifluoromethyl)benzylidene)hydrazinecarbonyl)piperidine-1-carbonyl)benzenesulfonamide]: the Ki at hCA II is 37.4 nM; at hCA I, 1750 nM.

For `Cc1ccc(/C=N/NC(=O)C2CCN(C(=O)c3ccc(S(N)(=O)=O)cc3)CC2)cc1` [compound 6, (E)-4-(4-(2-(4-methylbenzylidene)hydrazinecarbonyl)piperidine-1-carbonyl)benzenesulfonamide], the Ki on hCA II is 5.62 nM; on hCA I it was 3240 nM.

For `COc1ccc(/C=N/NC(=O)C2CCN(C(=O)c3ccc(S(N)(=O)=O)cc3)CC2)c(OC)c1` [compound 10, (E)-4-(4-(2-(2,4-dimethoxybenzylidene)hydrazinecarbonyl)piperidine-1-carbonyl)benzenesulfonamide], the figures for the Ki on hCA II and at hCA I were 160 nM and 1890 nM, respectively.

In the case of `NS(=O)(=O)c1ccc(C(=O)N2CCC(C(=O)N/N=C/c3ccccc3Cl)CC2)cc1` [compound 23, (E)-4-(4-(2-(2-chlorobenzylidene)hydrazinecarbonyl)piperidine-1-carbonyl)benzenesulfonamide], the Ki was determined as 6.51 nM at hCA II and 482 nM on hCA I.

Take `COc1ccc(/C=N/NC(=O)C2CCN(C(=O)c3ccc(S(N)(=O)=O)cc3)CC2)c(Br)c1OC` [compound 15, (E)-4-(4-(2-(2-bromo-3,4-dimethoxybenzylidene)hydrazinecarbonyl)piperidine-1-carbonyl)benzenesulfonamide]: the Ki on hCA II came out at 65.5 nM; on hCA I, 1540 nM.

Regarding `NS(=O)(=O)c1ccc(C(=O)N2CCC(C(=O)N/N=C/c3ccc(F)cc3)CC2)cc1` [compound 20, (E)-4-(4-(2-(4-fluorobenzylidene)hydrazinecarbonyl)piperidine-1-carbonyl)benzenesulfonamide], the Ki on hCA II stood at 17.1 nM; on hCA I it was 340 nM.

With `NS(=O)(=O)c1ccc(C(=O)N2CCC(C(=O)N/N=C/c3cccc(F)c3)CC2)cc1` [compound 19, (E)-4-(4-(2-(3-fluorobenzylidene)hydrazinecarbonyl)piperidine-1-carbonyl)benzenesulfonamide], the figures for the Ki at hCA II and at hCA I were 92.4 nM and 392 nM, respectively.
